The text below walks through data of ChEMBL document CHEMBL5131542, “Exploring Degradation of Mutant and Wild-Type Epidermal Growth Factor Receptors Induced by Proteolysis-Targeting Chimeras” (J Med Chem, 2022).

A word on the GI50: it is the concentration that inhibits growth by half. In general, pKd refers to the Kd on a negative log10 scale, so that one unit is a factor of ten.

Molecules are shown by their SMILES. pKd: −log10 of the molar value. Activity calls are given as the source filed them. No cut-off for these calls is given here.

The test system of one assay is NCI-H1299. Description: Antiproliferative activity against human NCI-H1299 cells expressing wild type EGFR assessed as cell growth inhibition at 1 uM in presence of pictilisib. The class given is functional, cell-based.
For a further assay, the system named is OVCAR-8. Description: Antiproliferative activity against human OVCAR-8 cells expressing wild type EGFR assessed as cell growth inhibition at 1 uM in presence of pictilisib. In kind it is functional, cell-based.
The subject of the next assay is HCC827. Description: Antiproliferative activity against human HCC827 cells assessed as cell growth inhibition incubated for 3 days by CCK-8 assay. In kind it is functional. The settings on record: HCC827, 72 h, time 3 day.
The test system of assay [1] is Protein cereblon/Epidermal growth factor receptor (Homo sapiens), P00533+Q96SW2 [UNDEFINED MUTATION]. Description: PROTAC activity at CRBN/EGFR Del19 mutant in human HCC827 cells assessed as EGFR degradation treated after 8 hrs under serum starvation condition at 100 nM measured after 16 hrs by Western blotting analysis. In kind it is cell-based. (A western blot detects proteins with antibodies after separation by electrophoresis.)

The test system is the same in assay [2]. Description: PROTAC activity at CRBN/EGFR Del19 mutant in human HCC827 cells assessed as EGFR degradation treated after 8 hrs under serum starvation condition at 1 uM measured after 16 hrs by Western blotting analysis. In kind it is cell-based.
For assay [3], the target named is Epidermal growth factor receptor (Homo sapiens, UniProt P00533, L858R). Description: Binding affinity to human partial length EGFR (R669 to V1011 residues) L858R mutant expressed in bacterial expression system assessed as immobilized ligand binding by competitive binding assay.
Assay [4] addresses Epidermal growth factor receptor (Homo sapiens, UniProt P00533). Description: Binding affinity to human wild type partial length EGFR (R669 to V1011 residues) expressed in bacterial expression system assessed as immobilized ligand binding by competitive binding assay.
Assay [5] concerns von Hippel-Lindau disease tumor suppressor/Epidermal growth factor receptor (Homo sapiens), P00533+P40337 [UNDEFINED MUTATION]. Description: PROTAC activity at VHL/EGFR Del19 mutant in human HCC827 cells assessed as EGFR degradation treated after 8 hrs under serum starvation condition at 10 to 1000 nM measured after 16 hrs by Western blotting analysis. Conditions: dose 10-1000 nM. In kind it is cell-based.

Assay [6] has as its target T1, von Hippel-Lindau disease tumor suppressor/Epidermal growth factor receptor (Homo sapiens, UniProt P00533+P40337). Description: PROTAC activity at VHL/wild type EGFR in human OVCAR-8 cells assessed as EGFR degradation measured after 24 hrs by Immunoblotting analysis. In kind it is cell-based.
Assay [7] has as its target T1, von Hippel-Lindau disease tumor suppressor/Epidermal growth factor receptor. Description: PROTAC activity at VHL/EGFR Del19 mutant in human HCC827 cells. In kind it is cell-based.

Chain of von Hippel-Lindau disease tumor suppressor/Epidermal growth factor receptor (Homo sapiens), P00533+P40337 [UNDEFINED MUTATION] (P00533 whole entry, looked up, stated change not applied): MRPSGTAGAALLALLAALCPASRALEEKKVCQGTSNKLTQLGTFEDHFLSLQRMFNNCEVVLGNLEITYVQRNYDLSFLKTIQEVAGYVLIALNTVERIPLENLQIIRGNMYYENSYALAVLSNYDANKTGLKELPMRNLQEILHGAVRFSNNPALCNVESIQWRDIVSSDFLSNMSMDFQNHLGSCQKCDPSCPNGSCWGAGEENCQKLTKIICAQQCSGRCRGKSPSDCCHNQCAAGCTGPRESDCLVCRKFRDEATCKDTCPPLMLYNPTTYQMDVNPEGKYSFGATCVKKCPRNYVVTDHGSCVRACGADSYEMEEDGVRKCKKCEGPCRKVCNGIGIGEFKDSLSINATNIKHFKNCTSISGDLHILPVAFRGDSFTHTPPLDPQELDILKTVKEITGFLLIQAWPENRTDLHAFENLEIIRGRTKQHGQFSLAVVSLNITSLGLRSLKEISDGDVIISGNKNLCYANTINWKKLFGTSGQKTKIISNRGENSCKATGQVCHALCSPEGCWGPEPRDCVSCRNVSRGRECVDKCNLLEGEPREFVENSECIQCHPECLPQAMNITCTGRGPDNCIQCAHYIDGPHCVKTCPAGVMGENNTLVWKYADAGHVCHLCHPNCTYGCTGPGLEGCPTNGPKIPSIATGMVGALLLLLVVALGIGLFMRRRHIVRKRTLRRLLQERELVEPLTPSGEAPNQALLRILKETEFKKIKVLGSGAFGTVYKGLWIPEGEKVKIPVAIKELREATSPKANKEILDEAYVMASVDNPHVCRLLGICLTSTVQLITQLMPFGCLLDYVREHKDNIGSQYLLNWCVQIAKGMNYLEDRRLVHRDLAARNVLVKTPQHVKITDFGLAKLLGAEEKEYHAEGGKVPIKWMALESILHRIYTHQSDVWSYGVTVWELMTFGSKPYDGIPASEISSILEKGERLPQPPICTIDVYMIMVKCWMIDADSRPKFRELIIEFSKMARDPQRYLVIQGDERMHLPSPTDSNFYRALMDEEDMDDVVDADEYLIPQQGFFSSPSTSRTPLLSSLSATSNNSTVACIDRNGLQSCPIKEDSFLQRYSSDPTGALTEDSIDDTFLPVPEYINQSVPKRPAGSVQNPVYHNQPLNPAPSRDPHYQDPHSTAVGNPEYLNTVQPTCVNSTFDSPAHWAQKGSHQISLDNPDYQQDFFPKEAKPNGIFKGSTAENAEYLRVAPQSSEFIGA
Chain of von Hippel-Lindau disease tumor suppressor/Epidermal growth factor receptor (Homo sapiens), P00533+P40337 [UNDEFINED MUTATION] (P40337 whole entry, looked up, stated change not applied): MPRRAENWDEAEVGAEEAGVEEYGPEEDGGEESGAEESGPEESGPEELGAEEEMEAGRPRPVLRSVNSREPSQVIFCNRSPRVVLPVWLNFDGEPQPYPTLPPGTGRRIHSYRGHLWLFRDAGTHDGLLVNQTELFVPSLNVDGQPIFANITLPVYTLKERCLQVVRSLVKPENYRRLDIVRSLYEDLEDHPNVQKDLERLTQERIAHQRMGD
Chain of Protein cereblon/Epidermal growth factor receptor (Homo sapiens), P00533+Q96SW2 [UNDEFINED MUTATION] (P00533 whole entry, looked up, stated change not applied): as the sequence (P00533 whole entry, looked up, stated change not applied) above
Chain of Protein cereblon/Epidermal growth factor receptor (Homo sapiens), P00533+Q96SW2 [UNDEFINED MUTATION] (Q96SW2 whole entry, looked up, stated change not applied): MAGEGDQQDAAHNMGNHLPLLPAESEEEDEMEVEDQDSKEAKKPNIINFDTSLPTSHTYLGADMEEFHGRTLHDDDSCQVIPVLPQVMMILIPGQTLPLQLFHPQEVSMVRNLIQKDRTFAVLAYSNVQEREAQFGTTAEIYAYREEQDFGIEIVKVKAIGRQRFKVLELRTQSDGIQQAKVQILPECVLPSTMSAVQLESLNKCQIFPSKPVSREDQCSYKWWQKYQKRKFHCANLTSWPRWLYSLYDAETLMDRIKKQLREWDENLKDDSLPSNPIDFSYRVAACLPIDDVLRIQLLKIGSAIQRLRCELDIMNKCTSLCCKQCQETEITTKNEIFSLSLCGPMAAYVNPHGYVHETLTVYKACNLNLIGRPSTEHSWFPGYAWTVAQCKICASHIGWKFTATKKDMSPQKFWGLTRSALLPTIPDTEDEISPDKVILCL
Chain of Epidermal growth factor receptor (Homo sapiens, UniProt P00533, L858R) (P00533 25-1210 L858R limits assumed): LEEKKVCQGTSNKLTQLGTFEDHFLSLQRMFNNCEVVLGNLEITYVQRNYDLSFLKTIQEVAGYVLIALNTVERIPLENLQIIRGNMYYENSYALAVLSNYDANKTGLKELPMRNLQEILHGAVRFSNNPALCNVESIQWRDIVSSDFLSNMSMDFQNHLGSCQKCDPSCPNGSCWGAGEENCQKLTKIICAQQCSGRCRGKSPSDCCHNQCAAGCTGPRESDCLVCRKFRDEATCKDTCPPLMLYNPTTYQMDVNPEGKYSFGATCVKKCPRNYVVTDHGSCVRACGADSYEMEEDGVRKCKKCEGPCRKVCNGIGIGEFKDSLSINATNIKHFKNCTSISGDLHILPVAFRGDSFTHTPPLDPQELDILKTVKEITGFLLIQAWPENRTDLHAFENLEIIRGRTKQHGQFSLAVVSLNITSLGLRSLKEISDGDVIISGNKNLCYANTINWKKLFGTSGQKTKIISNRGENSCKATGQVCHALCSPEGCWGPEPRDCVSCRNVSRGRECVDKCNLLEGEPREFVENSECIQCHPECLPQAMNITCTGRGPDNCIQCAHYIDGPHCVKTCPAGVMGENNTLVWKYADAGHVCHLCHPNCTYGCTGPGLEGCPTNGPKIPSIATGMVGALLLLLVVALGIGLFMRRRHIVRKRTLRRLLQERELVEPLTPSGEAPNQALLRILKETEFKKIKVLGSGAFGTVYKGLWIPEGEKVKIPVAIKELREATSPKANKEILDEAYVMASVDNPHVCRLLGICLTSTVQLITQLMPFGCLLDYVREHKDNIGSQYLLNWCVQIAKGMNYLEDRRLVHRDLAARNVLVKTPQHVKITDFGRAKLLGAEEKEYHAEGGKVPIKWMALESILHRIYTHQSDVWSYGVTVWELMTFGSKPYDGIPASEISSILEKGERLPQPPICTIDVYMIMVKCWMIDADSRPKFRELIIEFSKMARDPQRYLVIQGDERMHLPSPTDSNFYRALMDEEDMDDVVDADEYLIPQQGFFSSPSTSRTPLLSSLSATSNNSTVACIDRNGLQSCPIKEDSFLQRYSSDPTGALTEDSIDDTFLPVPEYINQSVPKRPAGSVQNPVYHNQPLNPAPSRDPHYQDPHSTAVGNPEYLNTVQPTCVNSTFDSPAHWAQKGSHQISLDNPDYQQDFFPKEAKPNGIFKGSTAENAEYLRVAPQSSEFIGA

Turning to `COc1cc2ncnc(Nc3ccc(F)c(Cl)c3)c2cc1OCCCN1CCN(C(=O)CCCCCCCCCCNC(=O)C[C@H](NC(=O)[C@@H]2C[C@@H](O)CN2C(=O)[C@@H](c2cc(C)no2)C(C)C)c2ccc(-c3scnc3C)cc2)CC1`, the outcome in the assay with NCI-H1299 and in the assay with OVCAR-8 was Active. Besides, the GI50 in the assay on HCC827 is 250 nM.

As to `COc1cc2ncnc(Nc3ccc(F)c(Cl)c3)c2cc1OCCCN1CCN(CCC(=O)NCCCCCCCCNc2ccc3c(c2)C(=O)N(C2CCC(=O)NC2=O)C3=O)CC1` (stereo unspecified), the result in assay [1] and in assay [2] was Active.

Regarding `COc1cc2ncnc(Nc3ccc(F)c(Cl)c3)c2cc1OCCCN1CCN(C(=O)CCOCCOCCOCCOCCOCCNc2ccc3c(c2)C(=O)N(C2CCC(=O)N(C)C2=O)C3=O)CC1` (stereo unspecified), the pKd in assay [3] was 8.54; in [4], 8.19. Consider `COc1cc2ncnc(Nc3ccc(F)c(Cl)c3)c2cc1OCCCN1CCN(C(=O)CCNC(=O)C[C@H](NC(=O)[C@@H]2C[C@@H](O)CN2C(=O)[C@@H](c2cc(C)no2)C(C)C)c2ccc(-c3scnc3C)cc2)CC1`, for which the result in assay [5] was Active. For the same molecule, the GI50 with HCC827 was found to be 780 nM. With `COc1cc2ncnc(Nc3ccc(F)c(Cl)c3)c2cc1OCCCN1CCN(C(=O)CCCCCCCCCNC(=O)C[C@H](NC(=O)[C@@H]2C[C@@H](O)CN2C(=O)[C@@H](c2cc(C)no2)C(C)C)c2ccc(-c3scnc3C)cc2)CC1`, in [5], the result was Active. Besides, the GI50 with HCC827 turned out to be 590 nM.

As for `COc1cc2ncnc(Nc3ccc(F)c(Cl)c3)c2cc1OCCCN1CCN(C(=O)CCCCCCCNC(=O)C[C@H](NC(=O)[C@@H]2C[C@@H](O)CN2C(=O)[C@@H](c2cc(C)no2)C(C)C)c2ccc(-c3scnc3C)cc2)CC1`, in assay [5], the result was Active. In addition, the concentration for 50% growth inhibition (GI50) in the assay on HCC827 amounted to 610 nM. `COc1cc2ncnc(Nc3ccc(F)c(Cl)c3)c2cc1OCCCN1CCN(C(=O)CCCCCNC(=O)C[C@H](NC(=O)[C@@H]2C[C@@H](O)CN2C(=O)[C@@H](c2cc(C)no2)C(C)C)c2ccc(-c3scnc3C)cc2)CC1`: in assay [5], the result was Active. Besides, in the assay with HCC827, the GI50 was found to be 790 nM. Take `COc1cc2ncnc(Nc3ccc(F)c(Cl)c3)c2cc1OCCCN1CCN(C(=O)CCCCCCCCCC(=O)N[C@H](C(=O)N2C[C@H](O)C[C@H]2C(=O)NCc2ccc(-c3scnc3C)cc2)C(C)(C)C)CC1`: the result in the assay with NCI-H1299 and in the assay with OVCAR-8 was Active. The GI50 in the assay on HCC827 came out at 230 nM. On to `COc1cc2ncnc(Nc3ccc(F)c(Cl)c3)c2cc1OCCCN1CCN(C(=O)CCCCCCCCNC(=O)C[C@H](NC(=O)[C@@H]2C[C@@H](O)CN2C(=O)[C@@H](c2cc(C)no2)C(C)C)c2ccc(-c3scnc3C)cc2)CC1`, for which the outcome in assay [5] was Active. Also, in the assay on HCC827, the GI50 turned out to be 460 nM. With `Cc1ncsc1-c1ccc(CNC(=O)[C@@H]2C[C@@H](O)CN2C(=O)[C@@H](NC(=O)COCCOCCOc2ccc(-c3ccc4ncnc(Nc5ccc(OCc6cccc(F)c6)c(Cl)c5)c4c3)cc2)C(C)(C)C)cc1`, in assay [6], the DC50 came out at 39 nM. For `COc1cc2ncnc(Nc3ccc(F)c(Cl)c3)c2cc1OCCCN1CCN(C(=O)CCNC(=O)C[C@H](NC(=O)[C@@H]2C[C@@H](O)CN2C(=O)[C@@H](NC(=O)C2(F)CC2)C(C)(C)C)c2ccc(-c3scnc3C)cc2)CC1`, in the assay with HCC827, the GI50 came out at 1020 nM. Consider `COc1cc2ncnc(Nc3ccc(F)c(Cl)c3)c2cc1OCCCN1CCN(C(=O)CCCNC(=O)C[C@H](NC(=O)[C@@H]2C[C@@H](O)CN2C(=O)[C@@H](c2cc(C)no2)C(C)C)c2ccc(-c3scnc3C)cc2)CC1`, for which, in assay [5], the outcome was Active. In addition, the GI50 in the assay on HCC827 turned out to be 880 nM. Regarding `Cc1ncsc1-c1ccc(CNC(=O)[C@@H]2C[C@@H](O)CN2C(=O)[C@@H](NC(=O)CCCCCCCCCCn2cc(COc3cc4ncnc(Nc5ccc(F)c(Cl)c5)c4cc3NC(=O)/C=C/CN3CCCCC3)nn2)C(C)(C)C)cc1`, the DC50 in assay [7] was 3.6 nM. On to `COc1cc2ncnc(Nc3ccc(F)c(Cl)c3)c2cc1OCCCN1CCN(C(=O)CNC(=O)C[C@H](NC(=O)[C@@H]2C[C@@H](O)CN2C(=O)[C@@H](c2cc(C)no2)C(C)C)c2ccc(-c3scnc3C)cc2)CC1`, for which the result in [5] was Active. The GI50 in the assay with HCC827 was 710 nM. Turning to `COc1cc2ncnc(Nc3ccc(F)c(Cl)c3)c2cc1OCCCN1CCN(C(=O)C[C@H](NC(=O)[C@@H]2C[C@@H](O)CN2C(=O)[C@@H](c2cc(C)no2)C(C)C)c2ccc(-c3scnc3C)cc2)CC1`, the GI50 in the assay on HCC827 was determined as 730 nM. Turning to `COc1cc2ncnc(Nc3ccc(F)c(Cl)c3)c2cc1OCCCN1CCN(CCC(=O)NCCCCCCCCOc2cccc3c2C(=O)N(C2CCC(=O)NC2=O)C3)CC1` (stereo unspecified), the result in the assay on NCI-H1299 and in the assay on OVCAR-8 was Active. Besides, the GI50 in the assay with HCC827 amounted to 660 nM.

Take `COc1cc2ncnc(Nc3ccc(F)c(Cl)c3)c2cc1OCCCN1CCN(C(=O)CCCCNC(=O)C[C@H](NC(=O)[C@@H]2C[C@@H](O)CN2C(=O)[C@@H](c2cc(C)no2)C(C)C)c2ccc(-c3scnc3C)cc2)CC1`: in the assay with HCC827, the GI50 is 770 nM. On to `COc1cc2ncnc(Nc3ccc(F)c(Cl)c3)c2cc1OCCCN1CCN(C(=O)CCOCCOCCOCCOCCNc2ccc3c(c2)C(=O)N(C2CCC(=O)NC2=O)C3=O)CC1` (stereo unspecified), for which, in the assay with HCC827, the GI50 is 930 nM. Regarding `COc1cc2ncnc(Nc3ccc(F)c(Cl)c3)c2cc1OCCCN1CCN(C(=O)CCOCCOCCOCCOCCOCCNc2ccc3c(c2)C(=O)N(C2CCC(=O)NC2=O)C3=O)CC1` (stereo unspecified), the outcome with NCI-H1299 and in the assay with OVCAR-8 was Active. Moreover, the GI50 in the assay with HCC827 was 870 nM.
